From ChEMBL document CHEMBL1150318, “Discovery of a novel, orally active himbacine-based thrombin receptor antagonist (SCH 530348) with potent antiplatelet activity” (J Med Chem, 2008)
Active and inactive are the calls of the source. The rule behind the calls is not given here.

Assays:
Platelet [1] = experiment: Ex vivo inhibition of haTRAP-induced platelet aggregation in cynomolgus monkey at 0.1 mg/kg, po after 24 hrs by impedance aggregometry; assay type: functional; conditions: Macaca fascicularis
[2] = target: T1, Proteinase-activated receptor 1 (Homo sapiens, UniProt P25116); experiment: Displacement of [3H]haTRAP from PAR1 in human platelets
T1 sequence (P25116 whole entry): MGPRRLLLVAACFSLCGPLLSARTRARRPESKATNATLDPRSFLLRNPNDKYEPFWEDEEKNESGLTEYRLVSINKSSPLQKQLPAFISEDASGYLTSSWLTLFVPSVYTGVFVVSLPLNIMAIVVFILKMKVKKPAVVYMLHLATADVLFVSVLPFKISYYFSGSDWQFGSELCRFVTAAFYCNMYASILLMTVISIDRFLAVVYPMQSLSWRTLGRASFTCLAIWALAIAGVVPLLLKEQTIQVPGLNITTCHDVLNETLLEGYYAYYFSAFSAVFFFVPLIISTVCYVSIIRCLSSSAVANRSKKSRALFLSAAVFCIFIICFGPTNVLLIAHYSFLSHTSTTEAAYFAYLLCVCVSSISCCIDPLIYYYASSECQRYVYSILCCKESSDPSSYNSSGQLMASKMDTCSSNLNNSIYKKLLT

[3] = Cmax in cynomolgus monkey at 0.1 mg/kg, po after 24 hrs; assay type: ADME, organism-based, Macaca fascicularis; set-up: dose 0.1 mg/kg, route oral; conditions: in vivo
[4] = AUC (0 to 24 hrs) in cynomolgus monkey at 0.1 mg/kg, po after 24 hrs; assay type: ADME, organism-based, Macaca fascicularis; set-up: time < 24 hr, dose 0.1 mg/kg, route oral; conditions: plasma
[5] = Oral absorption in monkey 1 mg/kg, po; conditions: rhesus monkey, in vivo, read-out: Fabs
[6] = Half life in monkey 1 mg/kg, iv; assay type: ADME, organism-based, Macaca mulatta; set-up: dose 1 mg/kg, route intravenous; conditions: rhesus monkey, in vivo
[7] = Tmax in rat 10 mg/kg, po; assay type: ADME, organism-based; set-up: dose 10 mg/kg, route oral; conditions: in vivo
[8] = target: T2, Proteinase-activated receptor 3 (Homo sapiens) (UniProt O00254); experiment: Binding affinity to PAR3
T2 sequence (whole entry): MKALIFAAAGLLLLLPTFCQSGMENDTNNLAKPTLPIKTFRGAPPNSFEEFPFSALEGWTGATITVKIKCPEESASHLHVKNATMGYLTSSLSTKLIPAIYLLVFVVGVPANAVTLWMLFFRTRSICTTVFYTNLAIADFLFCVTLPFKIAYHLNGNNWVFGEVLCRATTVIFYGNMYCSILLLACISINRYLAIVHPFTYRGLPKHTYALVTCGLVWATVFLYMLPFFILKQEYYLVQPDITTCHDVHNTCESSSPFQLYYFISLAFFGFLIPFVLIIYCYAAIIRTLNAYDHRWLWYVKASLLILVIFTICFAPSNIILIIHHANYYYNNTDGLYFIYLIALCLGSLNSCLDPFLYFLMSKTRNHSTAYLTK

[9] = target: T1, Proteinase-activated receptor 1; experiment: Antagonist activity at human PAR1 in HCASMC assessed as inhibition of thrombin-induced calcium efflux; assay type: functional
[10] = Inhibition of […] in human liver microsomes at 90 uM; assay type: ADME, Microsome
[11] = Half life in rat 10 mg/kg, iv; assay type: ADME, organism-based; set-up: dose 10 mg/kg, route intravenous; conditions: in vivo
[12] = target: T3, Proteinase-activated receptor 4 (Homo sapiens) (UniProt Q96RI0); experiment: Activity at PAR4
T3 sequence (whole entry): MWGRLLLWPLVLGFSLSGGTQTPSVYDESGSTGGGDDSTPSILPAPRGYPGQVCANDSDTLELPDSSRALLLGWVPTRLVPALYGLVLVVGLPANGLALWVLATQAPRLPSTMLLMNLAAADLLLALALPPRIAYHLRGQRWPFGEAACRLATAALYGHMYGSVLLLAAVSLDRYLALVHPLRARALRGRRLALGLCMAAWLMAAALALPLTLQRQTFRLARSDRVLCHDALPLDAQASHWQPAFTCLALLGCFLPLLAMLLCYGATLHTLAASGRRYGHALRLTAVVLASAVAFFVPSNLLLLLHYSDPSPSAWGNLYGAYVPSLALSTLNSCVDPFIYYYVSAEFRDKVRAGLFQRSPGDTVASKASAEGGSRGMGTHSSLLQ

Cytochrome P450 2C9 = Cytochrome P450 2C9 (Homo sapiens, UniProt P11712); experiment: Inhibition of CYP2C9 in human liver microsomes at 90 uM; assay type: ADME, Microsome
Cytochrome P450 1A2 = target: T4, Cytochrome P450 1A2 (Homo sapiens, UniProt P05177); experiment: Inhibition of CYP1A2 in human liver microsomes at 90 uM; assay type: ADME, Microsome
T4 sequence (P05177 whole entry): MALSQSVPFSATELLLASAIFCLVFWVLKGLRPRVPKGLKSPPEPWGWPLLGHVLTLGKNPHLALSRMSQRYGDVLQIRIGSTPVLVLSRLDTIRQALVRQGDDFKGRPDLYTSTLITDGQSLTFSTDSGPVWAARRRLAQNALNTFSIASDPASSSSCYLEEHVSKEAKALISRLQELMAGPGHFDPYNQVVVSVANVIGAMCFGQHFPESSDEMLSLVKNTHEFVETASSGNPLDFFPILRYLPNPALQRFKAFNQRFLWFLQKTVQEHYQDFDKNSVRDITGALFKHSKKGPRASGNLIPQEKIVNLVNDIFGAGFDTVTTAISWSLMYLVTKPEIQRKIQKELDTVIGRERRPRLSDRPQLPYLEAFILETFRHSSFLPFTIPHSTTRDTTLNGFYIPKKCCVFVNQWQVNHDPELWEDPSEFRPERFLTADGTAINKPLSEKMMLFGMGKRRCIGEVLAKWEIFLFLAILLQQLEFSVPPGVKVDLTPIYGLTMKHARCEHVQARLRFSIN

[13] = AUC (0 to 24 hrs) in rat 10 mg/kg, po; assay type: ADME, organism-based; set-up: time < 24 hr, dose 10 mg/kg, route oral; conditions: plasma
[14] = Oral bioavailability in rat 10 mg/kg; assay type: ADME, organism-based; conditions: in vivo
[15] = Oral bioavailability in monkey 1 mg/kg; assay type: ADME, organism-based, Macaca mulatta; conditions: rhesus monkey, in vivo
Plasma [16] = experiment: Anticoagulant activity in human plasma assessed as prothrombin time; assay type: functional, cell-free
[17] = Cmax in rat 10 mg/kg, po; assay type: ADME, organism-based; set-up: dose 10 mg/kg, route oral; conditions: in vivo
[18] = AUC (0 to 24 hrs) in monkey 1 mg/kg, po; assay type: ADME, organism-based, Macaca mulatta; set-up: time < 24 hr, dose 1 mg/kg, route oral; conditions: rhesus monkey, plasma
[19] = Oral absorption in rat 10 mg/kg, po; assay type: ADME, organism-based; set-up: dose 10 mg/kg, route oral; conditions: in vivo, read-out: Fabs
Cytochrome P450 3A4 = Cytochrome P450 3A4 (Homo sapiens, UniProt P08684); experiment: Inhibition of CYP3A4 in human liver microsomes at 90 uM; assay type: ADME, Microsome
[20] = Tmax in monkey 1 mg/kg, po; assay type: ADME, organism-based, Macaca mulatta; set-up: dose 1 mg/kg, route oral; conditions: rhesus monkey, in vivo
Platelet [21] = experiment: Ex vivo inhibition of haTRAP-induced platelet aggregation in cynomolgus monkey at 0.3 mg/kg, po after 24 hrs by impedance aggregometry; assay type: functional; conditions: Macaca fascicularis
Platelet [22] = experiment: Ex vivo inhibition of haTRAP-induced platelet aggregation in cynomolgus monkey at 0.5 mg/kg, po after 24 hrs by impedance aggregometry; assay type: functional; conditions: Macaca fascicularis
[23] = target: Proteinase-activated receptor 2 (Homo sapiens) (UniProt P55085); experiment: Binding affinity to PAR2
Cytochrome P450 2C19 = Cytochrome P450 2C19 (Homo sapiens, UniProt P33261); experiment: Inhibition of CYP2C19 in human liver microsomes at 90 uM; assay type: ADME, Microsome
[24] = Cmax in monkey 1 mg/kg, po; assay type: ADME, organism-based, Macaca mulatta; set-up: dose 1 mg/kg, route oral; conditions: rhesus monkey, in vivo
Plasma [25] = experiment: Anticoagulant activity in human plasma assessed as activated partial thromboplastin time; assay type: functional, cell-free
[26] = Cmax in cynomolgus monkey at 0.1 mg/kg, po after >24 hrs; assay type: ADME, organism-based, Macaca fascicularis; set-up: dose 0.1 mg/kg, route oral; conditions: in vivo
Platelet [27] = experiment: Ex vivo inhibition of haTRAP-induced platelet aggregation in cynomolgus monkey at 0.1 mg/kg after >24 hrs by impedance aggregometry; assay type: functional; conditions: Macaca fascicularis
[28] = AUC (0 to 24 hrs) in cynomolgus monkey at 0.1 mg/kg, po after >24 hrs; assay type: ADME, organism-based, Macaca fascicularis; set-up: time < 24 hr, dose 0.1 mg/kg, route oral; conditions: plasma
[29] = AUC (0 to 24 hrs) in cynomolgus monkey at 1 mg/kg, po after >24 hrs; assay type: ADME, organism-based, Macaca fascicularis; set-up: time < 24 hr, dose 1 mg/kg, route oral; conditions: plasma
Platelet [30] = experiment: Ex vivo inhibition of haTRAP-induced platelet aggregation in cynomolgus monkey at 1 mg/kg after >24 hrs by impedance aggregometry; assay type: functional; conditions: Macaca fascicularis
[31] = Cmax in cynomolgus monkey at 1 mg/kg, po after >24 hrs; assay type: ADME, organism-based, Macaca fascicularis; set-up: dose 1 mg/kg, route oral; conditions: in vivo
Platelet [32] = experiment: Ex vivo inhibition of haTRAP-induced platelet aggregation in cynomolgus monkey at 0.5 mg/kg, po by impedance aggregometry; assay type: functional, organism-based; set-up: dose 0.5 mg/kg; conditions: Macaca fascicularis

Chain of Cytochrome P450 2C19 (P33261 whole entry): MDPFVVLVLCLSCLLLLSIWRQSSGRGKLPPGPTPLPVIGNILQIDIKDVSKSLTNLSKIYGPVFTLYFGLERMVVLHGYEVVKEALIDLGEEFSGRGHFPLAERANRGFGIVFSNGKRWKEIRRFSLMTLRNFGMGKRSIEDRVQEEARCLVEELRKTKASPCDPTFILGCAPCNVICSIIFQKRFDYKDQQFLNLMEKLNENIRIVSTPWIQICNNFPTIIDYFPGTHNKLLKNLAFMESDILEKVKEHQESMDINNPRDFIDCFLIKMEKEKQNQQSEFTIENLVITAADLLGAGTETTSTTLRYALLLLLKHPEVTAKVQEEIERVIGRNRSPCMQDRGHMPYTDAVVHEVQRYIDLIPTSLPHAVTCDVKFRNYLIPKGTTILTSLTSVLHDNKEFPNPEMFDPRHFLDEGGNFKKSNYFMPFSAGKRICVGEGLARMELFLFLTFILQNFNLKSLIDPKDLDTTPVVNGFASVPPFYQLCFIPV
Chain of Cytochrome P450 3A4 (P08684 whole entry): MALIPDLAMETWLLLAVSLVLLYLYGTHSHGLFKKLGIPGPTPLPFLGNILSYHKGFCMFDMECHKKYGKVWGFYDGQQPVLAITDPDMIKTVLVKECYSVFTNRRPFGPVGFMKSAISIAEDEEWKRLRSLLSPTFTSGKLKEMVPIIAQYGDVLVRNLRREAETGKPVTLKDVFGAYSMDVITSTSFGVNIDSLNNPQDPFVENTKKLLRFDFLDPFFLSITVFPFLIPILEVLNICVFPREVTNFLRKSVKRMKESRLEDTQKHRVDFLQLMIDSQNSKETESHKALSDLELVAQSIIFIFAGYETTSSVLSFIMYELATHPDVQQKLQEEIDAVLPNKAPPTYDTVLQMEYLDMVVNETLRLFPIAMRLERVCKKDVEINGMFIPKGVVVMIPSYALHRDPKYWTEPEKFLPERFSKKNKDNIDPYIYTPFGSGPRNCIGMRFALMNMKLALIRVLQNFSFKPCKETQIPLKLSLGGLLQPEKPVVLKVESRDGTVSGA
Chain of Cytochrome P450 2C9 (P11712 whole entry): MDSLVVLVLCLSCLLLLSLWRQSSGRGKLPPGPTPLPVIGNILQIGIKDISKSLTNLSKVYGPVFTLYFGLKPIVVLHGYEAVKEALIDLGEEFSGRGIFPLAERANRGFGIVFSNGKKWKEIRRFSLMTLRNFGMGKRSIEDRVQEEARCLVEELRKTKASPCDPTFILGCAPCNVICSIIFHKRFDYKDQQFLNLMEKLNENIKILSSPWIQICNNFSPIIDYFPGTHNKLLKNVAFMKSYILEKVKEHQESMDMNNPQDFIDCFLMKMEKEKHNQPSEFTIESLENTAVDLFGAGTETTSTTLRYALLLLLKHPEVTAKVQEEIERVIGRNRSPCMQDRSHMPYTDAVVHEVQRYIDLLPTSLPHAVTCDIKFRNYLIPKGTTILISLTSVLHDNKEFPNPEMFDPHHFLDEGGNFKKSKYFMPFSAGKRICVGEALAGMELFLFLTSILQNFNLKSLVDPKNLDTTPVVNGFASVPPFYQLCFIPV
Chain of Proteinase-activated receptor 2 (Homo sapiens) (P55085 whole entry): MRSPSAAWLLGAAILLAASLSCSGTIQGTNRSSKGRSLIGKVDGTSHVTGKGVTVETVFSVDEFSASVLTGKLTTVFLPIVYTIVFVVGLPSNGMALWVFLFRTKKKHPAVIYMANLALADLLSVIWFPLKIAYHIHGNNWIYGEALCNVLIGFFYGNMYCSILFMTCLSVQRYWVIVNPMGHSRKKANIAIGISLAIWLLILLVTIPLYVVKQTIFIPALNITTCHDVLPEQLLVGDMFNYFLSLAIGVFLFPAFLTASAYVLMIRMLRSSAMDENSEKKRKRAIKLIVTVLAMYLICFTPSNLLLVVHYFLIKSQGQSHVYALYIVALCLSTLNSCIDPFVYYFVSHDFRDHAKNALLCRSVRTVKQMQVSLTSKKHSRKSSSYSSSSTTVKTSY

In the case of `CCOC(=O)N[C@@H]1CC[C@@H]2[C@@H](C1)C[C@H]1C(=O)O[C@H](C)[C@H]1[C@H]2/C=C/c1ccc(-c2cccc(C#N)c2)cn1`, the inhibition in vivo at 0.1 mg/kg (Platelet [1]) is reported as 80%, the Ki [2] is reported as 1.8 nM and the Cmax [3] is reported as 200 nM. For the same compound, the AUC(0-t) at 24 h [4] was 2.08 µM·h.

In the case of `CCOC(=O)N[C@@H]1CC[C@@H]2[C@@H](C1)C[C@H]1C(=O)O[C@H](C)[C@H]1[C@H]2/C=C/c1ccc(-c2ccccc2F)cn1`, the inhibition in vivo at 0.1 mg/kg (Platelet [1]) is reported as 80%, the Ki [2] is reported as 11 nM and the Cmax [3] is reported as 24 nM. For the same compound, the AUC(0-t) at 24 h [4] was 0.2 µM·h.

In the case of `CCOC(=O)N[C@@H]1CC[C@@H]2[C@@H](C1)C[C@H]1C(=O)O[C@H](C)[C@H]1[C@H]2/C=C/c1ccc(-c2cccc(F)c2)cn1` [VORAPAXAR], the Fa [5] is reported as 82%, the half-life [6] is reported as 13 h and the Tmax [7] is reported as 3 h. The Activity [8] was “inactive”, the Ki [9] was 1.1 nM and the Activity [10] was “Not Active”. For the same compound, the half-life [11] was 5.1 h, the Activity [12] was “inactive” and the Activity (Cytochrome P450 2C9) was “Not Active”. For the same compound, the Activity (Cytochrome P450 1A2) was “Not Active”, the AUC(0-t) at 24 h [13] was 5.3 µM·h and the bioavailability [14] was 33%. For the same compound, the bioavailability [15] was 86%, the Activity (Plasma [16]) was “inactive” and the Cmax [17] was 670 nM. The AUC(0-t) at 24 h [18] was 10 µM·h, the Fa [19] was 68% and the Activity (Cytochrome P450 3A4) was “Not Active”. For the same compound, the Tmax [20] was 1 h, the inhibition in vivo at 0.3 mg/kg (Platelet [21]) was 100% and the inhibition in vivo at 0.5 mg/kg (Platelet [22]) was 100%. For the same compound, the Activity [23] was “inactive”, the Activity (Cytochrome P450 2C19) was “Not Active” and the Cmax [24] was 1300 nM. For the same compound, the Activity (Plasma [25]) was “inactive”, the Cmax [26] was 18 nM and the inhibition in vivo at 0.1 mg/kg (Platelet [27]) was 100%. It also gave an AUC(0-t) at 24 h [28] of 0.2 µM·h and a Ki [2] of 8.1 nM.

With `CCOC(=O)N[C@@H]1CC[C@@H]2[C@@H](C1)C[C@H]1C(=O)O[C@H](C)[C@H]1[C@H]2/C=C/c1ccc(-c2cccc(C(F)(F)F)c2)cn1` the AUC(0-t) at 24 h [29] was 5.03 µM·h, the inhibition in vivo at 1 mg/kg (Platelet [30]) was 100% and the Ki [2] was 13 nM. For the same compound, the Cmax [31] was 330 nM.

In the case of `CCOC(=O)N(C)[C@@H]1CC[C@@H]2[C@@H](C1)C[C@H]1C(=O)O[C@H](C)[C@H]1[C@H]2/C=C/c1ccc(-c2cccc(F)c2)cn1`, the Activity (Platelet [32]) is reported as “inactive” and the Ki [2] is reported as 4.1 nM.
